In brackets after ≈: the same amount, converted by molar mass. Where two headings read alike, the source gives them in different places.
Assays:
[1] = test system: rice plants (var.: Kinki No. 33); conditions: preventive test
Pyricularia oryzae [2] = assay type: in vivo; conditions: preventive
Pyricularia oryzae [3] = experiment: microbe, parasite or virus in culture; assay type: cell-based; conditions: for Diameter of mycelium / Diameter of mycelium (symbol): 27° C., 2 weeks; for Diameter of mycelium: untreated 63.5 m/m; for MIC: Pyricularia oryzae, 336 h, read-out: MIC (minimum inhibitory concentration on mycelial growth)
Pyricularia oryzae [4] = assay type: in vivo
[5] = test system: rice plants (var.: Kinki No. 33)
[6] = concentration of active ingredient 100 ppm
[7] = concentration of active ingredient 500 ppm
[8] = curative, concentration of active ingredient 200 ppm
[9] = curative, concentration of active ingredient 500 ppm
[10] = curative, concentration of active ingredient 20 ppm

SMILES	Phytotoxicity ([1]; 100 ppm)	Disease control (Pyricularia oryzae [2]; [6]) [%]	Disease severity (Pyricularia oryzae [2]; [6]) [%]	Diameter of mycelium (Pyricularia oryzae [3]; 2 ppm) [m/m]	Diameter of mycelium (Pyricularia oryzae [3]; 10 ppm) [m/m]	Diameter of mycelium (Pyricularia oryzae [3]; 50 ppm) [m/m]	Diameter of mycelium (Pyricularia oryzae [3]; 250 ppm) [m/m]	MIC (Pyricularia oryzae [3]) [µg/mL]	Disease control (Pyricularia oryzae [4]; [8]) [%]	Disease severity (Pyricularia oryzae [4]; [8]) [%]	other results
Cc1ccccc1C=C1CC(C)(C)OC1=O [Compound 12, α-(o-methylbenzylidene)-γ-dimethyl-γ-butyrolactone]	no	97	2.5	2.0	0	0	0	2 (≈ 9.25 µM)	–	–	–
O=C1OCCC1=Cc1ccc([N+](=O)[O-])cc1 [Control (v), reference compound]	–	–	–	69.5	58.5	43.0	30.5	> 250	–	–	Phytotoxicity ([1]; 500 ppm): no; Disease control (Pyricularia oryzae [2]; [7]): 0%; Disease severity (Pyricularia oryzae [2]; [7]): 100.0%
O=C1OCCC1=Cc1c(Cl)cccc1Cl [Compound 2, α-(2,6-dichlorobenzylidene)-γ-butyrolactone]	no	100	0	0	0	0	0	< 2	–	–	–
Cc1cccc(C)c1C=C1CCOC1=O [Compound 4]	no	99	1.3	0	0	0	0	< 2	–	–	–
CC1CC(=Cc2ccccc2)C(=O)O1 (stereo not drawn) [Control (ix), reference compound]	–	–	–	–	–	–	–	–	–	–	Phytotoxicity ([1]; 500 ppm): no; Disease control (Pyricularia oryzae [2]; [7]): 10%; Disease severity (Pyricularia oryzae [2]; [7]): 90.0%
CC1CC(=Cc2c(F)cccc2Cl)C(=O)O1 (stereo not drawn) [Compound 3, α-(2-chloro-6-fluorobenzylidene)-γ-valerolactone]	no	100	0	0	0	0	0	< 2	100	0	–
CCc1ccccc1C=C1CC(C)OC1=O (stereo not drawn) [Compound 14]	no	100	0	–	0	0	0	~2 (≈ 9.25 µM)	100	0	Diameter of mycelium (symbol) (Pyricularia oryzae [3]; 2 ppm): ±
Cc1ccccc1C=C1CCOC1=O [Compound 1]	no	100	0	0	0	0	0	< 2	99	1.3	Phytotoxicity ([5]; curative test, 200 ppm): no
O=C1OCCC1=Cc1ccccc1O [Control (iii), reference compound]	–	–	–	65.0	55.0	40.0	11.0	> 250	–	–	Phytotoxicity ([1]; 500 ppm): no; Disease control (Pyricularia oryzae [2]; [7]): 10%; Disease severity (Pyricularia oryzae [2]; [7]): 90.0%; Disease control (Pyricularia oryzae [4]; [9]): 0%; Disease severity (Pyricularia oryzae [4]; [9]): 97.5%
O=C1OCCC1=Cc1ccc(Cl)cc1 [Control (vi), reference compound]	–	–	–	66.0	51.5	34.5	3.0	250 (≈ 1200 µM)	–	–	Phytotoxicity ([1]; 500 ppm): no; Disease control (Pyricularia oryzae [2]; [7]): 0%; Disease severity (Pyricularia oryzae [2]; [7]): 100.0%; Disease control (Pyricularia oryzae [4]; [9]): 0%; Disease severity (Pyricularia oryzae [4]; [9]): 100.0%
CC1(C)CC(=Cc2ccccc2Cl)C(=O)O1 [Compound 11]	no	99	1.3	–	0	0	0	~2 (≈ 8.45 µM)	–	–	Diameter of mycelium (symbol) (Pyricularia oryzae [3]; 2 ppm): ±
C[C@H]1O[C@H](OC2[C@@H](O)[C@@H](O)C(O)[C@H](O)[C@H]2O)[C@@H](N)C[C@@H]1N=C(N)C(=O)O.Cl (stereo partly drawn) [Commercial fungicide B, Kasugamycin hydrochloride, reference compound]	–	–	–	–	–	–	–	–	–	–	Disease control (Pyricularia oryzae [4]; [10]): 82%; Disease severity (Pyricularia oryzae [4]; [10]): 17.5%
CC1CC(=Cc2ccccc2Br)C(=O)O1 (stereo not drawn) [Compound 7]	no	100	0	0	0	0	0	< 2	100	0	–
CC(C)(C)C1CC(=Cc2ccccc2Cl)C(=O)O1 (stereo not drawn) [Compound 10]	no	99	1.3	–	0	0	0	~2 (≈ 7.55 µM)	–	–	Diameter of mycelium (symbol) (Pyricularia oryzae [3]; 2 ppm): ±
O=C1OCCC1=Cc1ccccc1 [Control (ii), reference compound]	–	–	–	68.5	49.0	35.5	–	~250 (≈ 1440 µM)	–	–	Phytotoxicity ([1]; 500 ppm): no; Disease control (Pyricularia oryzae [2]; [7]): 7%; Disease severity (Pyricularia oryzae [2]; [7]): 93.8%; Diameter of mycelium (symbol) (Pyricularia oryzae [3]; 250 ppm): ±; Disease control (Pyricularia oryzae [4]; [9]): 0%; Disease severity (Pyricularia oryzae [4]; [9]): 97.5%
CCC1CC(=Cc2ccccc2Cl)C(=O)O1 (stereo not drawn) [Compound 9, α-(o-chlorobenzylidene)-γ-ethyl-γ-butyrolactone]	no	99	1.3	–	0	0	0	~2 (≈ 8.45 µM)	99	1.3	Diameter of mycelium (symbol) (Pyricularia oryzae [3]; 2 ppm): ±
Cc1ccccc1C=C1CC(C)OC1=O (stereo not drawn) [Compound 5]	no	99	1.3	–	0	0	0	~2 (≈ 9.89 µM)	100	0	Diameter of mycelium (symbol) (Pyricularia oryzae [3]; 2 ppm): ±
CCOP(=O)(Sc1ccccc1)Sc1ccccc1 [Commercial fungicide C, O-ethyl-S,S-diphenyl-phosphorodithiolate, reference compound]	–	–	–	–	–	–	–	–	–	–	Phytotoxicity ([5]; in vivo): no; Disease control (Pyricularia oryzae [4]; in vivo): 92%; Disease severity (Pyricularia oryzae [4]; in vivo): 7.5%
CC(C)OP(=O)(OC(C)C)SCc1ccccc1 [Commercial fungicide A, 0,0-diisopropyl-S-benzylphosphorothioate, reference compound]	no	92	7.5	–	–	–	–	–	–	–	–
CC1CC(=Cc2ccccc2C(C)C)C(=O)O1 (stereo not drawn) [Compound 13]	no	100	0	–	0	0	0	~2 (≈ 8.68 µM)	99	1.3	Diameter of mycelium (symbol) (Pyricularia oryzae [3]; 2 ppm): ±
COc1ccccc1C=C1CCOC1=O [Control (iv), reference compound]	–	–	–	63.0	48.5	31.5	–	~250 (≈ 1220 µM)	–	–	Phytotoxicity ([5]; curative test, 500 ppm): no; Phytotoxicity ([1]; 500 ppm): no; Disease control (Pyricularia oryzae [2]; [7]): 2%; Disease severity (Pyricularia oryzae [2]; [7]): 97.5%; Diameter of mycelium (symbol) (Pyricularia oryzae [3]; 250 ppm): ±; Disease control (Pyricularia oryzae [4]; [9]): 0%; Disease severity (Pyricularia oryzae [4]; [9]): 100.0%
CC1CC(=Cc2c(Cl)cccc2Cl)C(=O)O1 (stereo not drawn) [Compound 8]	no	100	0	0	0	0	0	< 2	–	–	–
C=C1CCOC1=O [Control (i), reference compound]	–	–	–	–	–	–	–	–	–	–	Phytotoxicity ([1]; 500 ppm): no; Disease control (Pyricularia oryzae [2]; [7]): 0%; Disease severity (Pyricularia oryzae [2]; [7]): 100%
CC1CC(=Cc2ccccc2Cl)C(=O)O1 (stereo not drawn) [Compound 6, α-(o-chlorobenzylidene)-γ-valerolactone]	no	100	0	0	0	0	0	< 2	100	0	–
